The record followed here is US6011014A, “Peptide T and related peptides in the treatment of inflammation, including multiple sclerosis” (Advanced Immunit, Inc., priority 1998, dated 2000).

Square brackets hold non-standard residues; d marks the D form. Peptide text beside a SMILES is read from it.

The nature of data set [1]: pharmacokinetics of Peptide T. As to conditions: following administration in vivo. An excerpt:
Initial research in this area was focused on the CNS for two reasons: a high concentration of CD4 molecules was found on neurons and one of the major effect of HIV infection is the development of neurocognitive dysfunction.
1. Macrophages may be more sensitive to Peptide T than are T cells, since T cells receive many more potential activating signals than the CD4/MHC II interaction. Thus macrophages may be down regulated by Peptide T administration on the first day of in vitro culture inhibiting their ability to present mitogens and antigens to T cells. B cells can act as APC in place of macrophages when presenting antigen, but not when presenting mitogens which are antigen non-specific (explaining the results of Table III). Resting B cells are resistant to Peptide T as they are CD4 negative. In the presence of a single dose of Peptide T, they could present antigen to T cells allowing proliferation of PBMC in response to antigen. When Peptide T is given on a daily basis in cultured T cells, which may be less sensitive to the effects of Peptide T, then macrophages may be inhibited. Daily administration of Peptide T in vivo, may not function as it does on a daily basis in vitro, since the half life of Peptide T in vivo is shorter than in vitro. In vitro serum supplements are heat inactivated to destroy proteolytic enzymes which actively degrade Peptide T in vivo. […]

Data set [2] can be described thus: tolerability of Peptide T therapy. Conditions: patients. Format: in vivo, human. An excerpt:
Cyclosporine is an anti-inflammatory drug that inhibits lymphocyte proliferation by inhibiting IL-2 and IFN γ gene transcription by binding to and inactivating cyclophilin, an isomerase required for signal transduction (Halloran et al, Clin. Biochem. 24 3-7 (1991)). […] Cyclosporine induced side effects include renal tubular atrophy, nephrotoxicity, hypertension, hirsutism, gingival hypertrophy, tremors, convulsions and paresthesia (Briggs J.D. Immunol. Lett. 29 89-94 (1991)).

The test system of a further data set is PBMC. Briefly: mitogen-induced lymphoproliferation (Example 17, 20). Format: cell-based, human. Conditions: Con A-induced proliferation measured daily, 10^-9 M; FIG. 3. As for the experimental part: Concanavalin A (Con A), pokeweed mitogen, (PWM) and phytohaemagglutin-P (PHA-P) were obtained from Sigma Chemical Co. (St. Louis, Mo., U.S.A.). Peptide T was synthesised by Carlbiotech Ltd (Copenhagen, Denmark) and supplied as the chloride salt at 8.5 mg/ml in 0.9% benzyl alcohol as a preservative and was stored at 4° C. Peptide T was diluted to working solutions in culture medium (RPMI). Dilute solutions of Peptide T were prepared fresh from stock Peptide T for each experiment. ^3 H-thymidine (5 Ci/mmol) was obtained from Amersham.
Isolation of PBMC: Whole blood from healthy, adult volunteers was drawn into heparin and peripheral blood mononuclear cells (PBMC) isolated by density gradient centrifugation on HISTOPAQUE™ (Sigma Chemical Co). PBMC were removed from the interface, washed three times in RPMI containing gentamycin (100 μg/ml) and resuspended to 1×10^6 PBMC/ml in RPMI containing 10% foetal bovine serum and gentamycin. 10^5 PBMC were cultured in the presence of 100 μl of mitogen suspension in 96 well plates. […] The amount of incorporated ^3 H-thymidine was determined using a BECKMAN™ LS8000 liquid scintillation counter and proliferation expressed as either counts per minute (cpm) or as a proliferation index (PI). […]
10^5 PBMC were cultured in the presence of PWM, Con A or PHA (see Example 17). […] Data were analysed by two sample ANOVA using 95% confidence limits.

In data set [3] the test system is MO/MAC cytotoxicity against K562 target cells. Nature of the data set: macrophage cytotoxicity assay. Format: cell-based, human. Conditions: Peptide T added with target cells (step 2) or every day; FIG. 7. As for the experimental part: The MO/MAC cytotoxicity assay is a two step assay. After isolation of adherent cells (mainly MO/MAC) from PBMC, MO/MAC are activated by lymphokines (including IFN gamma and LPS. Subsequent to washing which removes activators, ^3 H-thymidine labelled K562 target cells were added to activated MO/MAC and incubated for 3 days. The degree of cytotoxicity was proportional to the amount of radioactive label released into the culture supernatant, is shown in the following scheme: […]

The test system of data set [4] is Mice bearing Meth A ascites tumours. Nature of the data set: LPS toxicity in Meth A ascites tumour bearing mice. Format: in vivo, mouse. As to conditions: 100 μg LPS s.c. + 1 mg analogue; for % mice surviving 41 hours: LPS + BSA 60; for % mice with diarrhoea at 19 hrs / % mice with exudate at 19 hrs: LPS + BSA 100. As for the experimental part:
Mice bearing Meth A ascites tumours were given 100 μg LPS subcutaneously with either bovine serum albumin (BSA) or peptide T analogue (504 or 505, 1 mg). The number of animals showing signs of LPS toxicity (diarrhoea, exudate from the eyes and general level of activity) in each group was recorded at 19, 24 and 41 hours after injection. At the completion of the experiment the number of surviving animals was recorded (see Table II below) and the survivors bled for later determination of TNF, IL-1 , IL-6 and RNI levels.

Data set [5] has as its system human neutrophils. Briefly: TNF-induced neutrophil chemiluminescence. Conditions: FIG. 13. Format: cell-based. On the procedure: (§1) Neutrophils were isolated from whole blood from healthy blood donors. Separation was achieved by the rapid-single-step method of centrifugation of whole blood on FICOLL-HYPAQUE™. These were >99% viable and usually >98% pure.
TNF was a recombinant product produced in E. coli. Peptide T and analogue 505 (D-Ser-Ser-D-Thr-Thr-D-Thr-Thr-Tyr-D-Thr) were resuspended in Hank's Balanced Salt Solution (HBSS).
(§2) To 100 μl of 500-1000 U/ml of TNF was added 10 μl of peptide and after 5 min 100 μl of 1×10^7 neutrophils/ml was added. The cells further incubated at 37° C. /20 min and then tested for chemiluminescence activity. In some cases an agonist such as fMLP (10^-7 M) was added. Chemiluminescence was measured in a luminometer (LKB). The results for Peptide T are presented in FIG. 12 as peak rate of CL release. Lucigenin-dependent chemiluminescence was measured: this represents superoxide measurement. In another set of experiments the effects of analogue 505 on the LPS-induced neutrophil chemiluminescence were examined. In this case the LPS was essentially substituted for the TNF. The concentration of LPS was 0.005 μg/ml.

Data set [6] relates to human neutrophils. Briefly: LPS-induced neutrophil chemiluminescence. As to conditions: LPS 0.005 μg/ml; FIG. 14. Format: cell-based. On the procedure:
as §1, §2

`C[C@@H](N)C(=O)N[C@@H](CO)C(=O)N[C@H](C(=O)N[C@H](C(=O)N[C@H](C(=O)N[C@@H](CC(N)=O)C(=O)N[C@@H](Cc1ccc(O)cc1)C(=O)N[C@H](C(N)=O)[C@@H](C)O)[C@@H](C)O)[C@@H](C)O)[C@@H](C)O` [Peptide T, D-Ala-Ser-Thr-Thr-Thr-Asn-Tyr-Thr-Amide] gave a peak plasma concentrations in data set [1] of 55 nM. In data set [2], the “side effects attributable to Peptide T therapy” value is given as “no significant side effects”. The “cytotoxicity for responding lymphocytes” value in the data set with PBMC is “not cytotoxic”. The “cytotoxicity of activated MO/MAC” value in data set [3] is “inhibit the cytotoxicity”.

As to `C[C@H](O)[C@@H](NC(=O)[C@H](Cc1ccc(O)cc1)NC(=O)[C@H](CC(N)=O)NC(=O)[C@H](NC(=O)[C@@H](NC(=O)[C@H](NC(=O)[C@H](CO)NC(=O)[C@@H](C)N)[C@H](C)O)[C@@H](C)O)[C@H](C)O)C(N)=O` [compound 504, H-D-Ala-Ser-D-Thr-Thr-D-Thr-Asn-Tyr-D-Thr-NH2], in data set [4], the “% mice surviving 41 hours” value stood at 100%, the “% mice with diarrhoea at 19 hrs” value came to 40% and the “% mice with exudate at 19 hrs” value is listed as 60%.

`C[C@H](O)[C@@H](NC(=O)[C@H](Cc1ccc(O)cc1)NC(=O)[C@@H](NC(=O)[C@H](NC(=O)[C@@H](NC(=O)[C@H](NC(=O)[C@H](CO)NC(=O)[C@H](N)CO)[C@H](C)O)[C@@H](C)O)[C@H](C)O)[C@@H](C)O)C(N)=O` [compound 505, H-D-Ser-Ser-D-Thr-Thr-D-Thr-Thr-Tyr-D-Thr-NH2] (H-[dS]S[dT]T[dT]TY[dT]-NH2): the “TNF priming and activation of human neutrophils (chemiluminescence)” value in the data set with human neutrophils [5] was “inhibits TNF priming and activation of human neutrophils”. Also, the “LPS activation of human neutrophils (chemiluminescence)” value with human neutrophils [6] is listed as “inhibits LPS activation of human neutrophils”. Also, in data set [4], the “% mice surviving 41 hours” value is recorded as 100%, the “% mice with diarrhoea at 19 hrs” value was found to be 40% and the “% mice with exudate at 19 hrs” value is recorded as 20%.
